Values after ≈ are worked out from the molar mass of the structure shown.
How the values were obtained:
[1] = Kinetic aqueous solubility of the compound; type: physicochemical; details: buffer; read-out: Kinetic_solubility
[2] = Apparent passive permeability in MDCK cells at 10 uM after 1 hr by LC-MS/MS analysis; type: ADME, cell-based, Canis lupus familiaris; details: dog; for Papp: mdck, 1 h, 10 µM

Cc1cnc(-c2ccc(C(C(=O)NO)c3ccccc3F)cc2)nc1 (stereo unspecified)
solubility kinetic [1]: 52 µM (≈ 17.5 µg/mL)
Papp [2]: Nd(Toxic)

O=C(NO)C(c1ccc(-c2nccc(C(F)(F)F)n2)cc1)c1ccccc1F (stereo unspecified)
solubility kinetic [1]: 141 µM (≈ 55.2 µg/mL)
Papp [2]: Nd(Toxic)

O=C(NO)C(c1ccc(-c2cnccn2)cc1)c1ccccc1F (stereo unspecified)
solubility kinetic [1]: 164 µM (≈ 53 µg/mL)
Papp at 1 h, 10 µM ([2]; MDCK): 46.4 ×10⁻⁶ cm/s
